The results in this text go back to patent US20110082157A1, “Piperidinylamino-Thieno [2,3-D] Pyrimidine Compounds” (priority 2004, published 2011).

Counter-ions that a name gives are not always drawn. Some results are limits rather than exact numbers.

One data set deals with hERG (Homo sapiens, UniProt Q12809). In words: hERG % inhibition at 1 uM.
Sequence of hERG (Q12809 whole entry): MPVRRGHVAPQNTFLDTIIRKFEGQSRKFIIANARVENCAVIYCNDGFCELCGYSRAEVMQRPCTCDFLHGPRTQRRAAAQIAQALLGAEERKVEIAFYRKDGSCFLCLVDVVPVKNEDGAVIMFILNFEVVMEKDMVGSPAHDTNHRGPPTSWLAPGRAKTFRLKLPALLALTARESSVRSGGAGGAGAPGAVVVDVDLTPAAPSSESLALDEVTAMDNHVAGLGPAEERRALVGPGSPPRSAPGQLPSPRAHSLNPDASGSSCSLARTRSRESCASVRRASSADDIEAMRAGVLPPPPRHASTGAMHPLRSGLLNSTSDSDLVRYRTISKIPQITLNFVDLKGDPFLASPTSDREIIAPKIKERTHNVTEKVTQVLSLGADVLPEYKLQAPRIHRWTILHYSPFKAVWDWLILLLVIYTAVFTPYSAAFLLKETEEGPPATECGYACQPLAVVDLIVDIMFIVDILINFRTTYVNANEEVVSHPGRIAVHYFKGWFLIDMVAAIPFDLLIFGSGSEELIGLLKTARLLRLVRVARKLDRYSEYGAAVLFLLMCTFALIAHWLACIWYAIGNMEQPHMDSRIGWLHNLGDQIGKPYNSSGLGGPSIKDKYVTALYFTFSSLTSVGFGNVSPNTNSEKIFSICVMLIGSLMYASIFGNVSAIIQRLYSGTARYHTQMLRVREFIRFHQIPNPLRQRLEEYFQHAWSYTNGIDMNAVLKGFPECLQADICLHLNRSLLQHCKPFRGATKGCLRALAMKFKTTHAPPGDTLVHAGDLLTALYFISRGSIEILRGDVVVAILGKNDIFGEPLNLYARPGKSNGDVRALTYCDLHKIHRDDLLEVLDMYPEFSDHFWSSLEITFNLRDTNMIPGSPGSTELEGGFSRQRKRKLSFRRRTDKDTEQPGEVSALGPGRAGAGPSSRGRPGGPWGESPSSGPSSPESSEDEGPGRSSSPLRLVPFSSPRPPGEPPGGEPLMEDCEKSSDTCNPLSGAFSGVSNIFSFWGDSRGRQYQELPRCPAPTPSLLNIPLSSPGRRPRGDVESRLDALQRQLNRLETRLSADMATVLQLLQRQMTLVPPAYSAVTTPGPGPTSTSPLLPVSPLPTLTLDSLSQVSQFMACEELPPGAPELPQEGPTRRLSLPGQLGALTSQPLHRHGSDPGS
Details: not given
On the technique in general: The hERG channel carries a current that helps repolarise heart muscle cells.
With `Cc1sc2ncnc(NC3CCN(Cc4ccccc4C#N)CC3)c2c1C` [Example B36, 2-((4-(5,6-dimethylthieno[2,3-d]pyrimidin-4-ylamino)piperidin-1-yl)methyl)benzonitrile, dihydrochloride], the “hERG (% Inhibition at 1 uM)” value was “hERG (% Inhibition at 1 uM): 21.7”.
On to `Fc1ccccc1CN1CCC(Nc2ncnc3sc4c(c23)CCCC4)CC1` [Example B4, N-(1-(2-fluorobenzyl)piperidin-4-yl)5,6,7,8-tetrahydro-benzo[4,5]thieno[2,3-d]pyrimidin-4-amine], for which the “hERG (% Inhibition at 1 uM)” value is recorded as “hERG (% Inhibition at 1 uM): 58.5”.

Test system in a further data set: not listed separately
In words: HLM T1/2. The following applies: human, liver microsomes. (Liver microsomes are a subcellular fraction often used to study metabolism.)
As usually defined, the half-life is how long it takes for the measured level to halve. The low end stands for fast loss, the high end for slow loss. Regarding `Cc1c(Cl)sc2ncnc(NC3CCN(Cc4cccc(F)c4)CC3)c12` [Example B37, N-(1-(3-fluorobenzyl)piperidin-4-yl)-6-chloro-5-methylthieno[2,3-d]pyrimidin-4-amine, dihydrochloride], the half-life was found to be 11 min.
In turn, `CC(c1cccc(F)c1)N1CCC(C)(Nc2ncnc3sc4c(c23)CCCC4)CC1` (stereo not drawn) [Example B15, N-(1-(1-(3-fluorophenyl)ethyl)-4-methylpiperidin-4-yl) 5,6,7,8-tetrahydro-benzo[4,5]thieno[2,3-d]pyrimidin-4-amine, dihydrochloride] registered a half-life of less than 15 min.
Consider `CC(C#N)(c1cccc(F)c1)N1CCC(Nc2ncnc3sc4c(c23)CCCC4)CC1` (stereo not drawn) [Example B23, 2-(3-fluorophenyl)-2-(4-(5,6,7,8-tetrahydro-benzo[4,5]thieno[2,3-d]pyrimidin-4-ylamino)piperidin-1-yl) propanenitrile, dihydrochloride], for which the half-life is less than 15 min.
Compound `CC(C)Cc1cc2c(NCCCNC(C)c3cccc(F)c3)ncnc2s1` (stereo not drawn) [Example B27, N-(3-(1-(3-fluorophenyl)ethylamino)propyl)-6-isobutylthieno[2,3-d]pyrimidin-4-amine, dihydrochloride] gave a half-life of less than 15 min.
Regarding `CC(C)CC(c1cccc(F)c1)N1CCC(Nc2ncnc3sc4c(c23)CCCC4)CC1` (stereo not drawn) [Example B16, N-(1-(1-(3-fluorophenyl)-3-methylbutyl)piperidin-4-yl)5,6,7,8-tetrahydro-benzo[4,5]thieno[2,3-d] pyrimidin-4-amine, dihydrochloride], the half-life is less than 15 min.
In the case of `FC(F)(F)c1cccc(CN2CCC(Nc3ncnc4sc(Cl)cc34)CC2)c1` [Example B54, N-(1-(3-(trifluoromethyl)benzyl)piperidin-4-yl)-6-chlorothieno[2,3-d]pyrimidin-4-amine, monomaleate], the half-life stood at 16 min.
`Fc1cccc(C(N2CCC(Nc3ncnc4sc5c(c34)CCCC5)CC2)C(F)(F)F)c1` (stereo not drawn) [Example B28, N-(1-(2,2,2-trifluoro-1-(3-fluorophenyl)ethyl)piperidin-4-yl)5,6,7,8-tetrahydro-benzo[4,5]thieno[2,3-d]pyrimidin-4-amine, dihydrochloride] returned a half-life of 11 min. This half-life and that of the compound before are within 1.5-fold of each other.
For `Clc1cc2c(NC3CCN(Cc4cncnc4)CC3)ncnc2s1` [Example B49, 6-chloro-N-(1-((pyrimidin-5-yl)methyl)piperidin-4-yl)thieno[2,3-d] pyrimidin-4-amine, monomaleate], the half-life amounted to 60 min. This half-life lies about 5.5-fold higher than the previous one.
For the compound `Clc1cccc(CN2CCC(Nc3ncnc4sc(Cl)cc34)CC2)c1` [Example B52, N-(1-(3-chlorobenzyl)piperidin-4-yl)-6-chlorothieno[2,3-d]pyrimidin-4-amine, monomaleate], the half-life came to 11 min.
On to `N#Cc1ccc(F)c(CN2CCC(Nc3ncnc4sc(Cl)cc34)CC2)c1` [Example B51, 3-((4-(6-chlorothieno [2,3-d]pyrimidin-4-ylamino)piperidin-1-yl)methyl)-4-fluorobenzonitrile, monomaleate], for which the half-life was found to be 10 min.
Same read-out and setting: the same measure for `CC(c1c(F)cccc1F)N1CCC(Nc2ncnc3sc4c(c23)CCCC4)CC1` (stereo not drawn) [Example B21, N-(1-(1-(2,6-difluorophenyl)ethyl)piperidin-4-yl)5,6,7,8-tetrahydro-benzo[4,5]thieno[2,3-d]pyrimidin-4-amine, dihydrochloride]: less than 15 min; for `Cc1sc2ncnc(NC3CCN(C(C)c4cccc(F)c4)CC3)c2c1C` (stereo not drawn) [Example B13, N-(1-(1-(3-fluorophenyl)ethyl)piperidin-4-yl)-5,6-dimethylthieno[2,3-d] pyrimidin-4-amine, dihydrochloride]: less than 15 min.
On to `CC(C)(c1cccc(F)c1)N1CCC(Nc2ncnc3sc4c(c23)CCCC4)CC1` [Example B24, N-(1-(2-(3-fluorophenyl)propan-2-yl)piperidin-4-yl)5,6,7,8-tetrahydro-benzo[4,5]thieno[2,3-d]pyrimidin-4-amine, dihydrochloride], for which the half-life is less than 15 min.
On to `Fc1cccc(CNCCCNc2ncnc3sc4c(c23)CCCC4)c1` [Example B25, N-(3-(3-fluorobenzylamino)propyl)5,6,7,8-tetrahydro-benzo[4,5]thieno[2,3-d]pyrimidin-4-amine, dihydrochloride], for which the half-life is less than 15 min.
Regarding `COc1ccccc1CN1CCC(Nc2ncnc3sc(Cl)c(C)c23)CC1` [Example B40, N-(1-(2-methoxybenzyl)piperidin-4-yl)-6-chloro-5-methylthieno[2,3-d] pyrimidin-4-amine, dihydrochloride], the half-life is less than 15 min.
On to `CC(C)Cc1cc2c(N3CCC(NCc4cc(F)cc(F)c4)CC3)ncnc2s1` [Example B29, N-(3,5-difluorobenzyl)-1-(6-isobutylthieno[2,3-d]pyrimidin-4-yl) piperidin-4-amine, dihydrochloride], for which the half-life worked out at 18 min.
Take `NC(=O)c1cccc(CN2CCC(Nc3ncnc4sc(Cl)cc34)CC2)c1` [Example B45, 3-((4-(6-chlorothieno [2,3-d]pyrimidin-4-ylamino)piperidin-1-yl)methyl) benzamide, monomaleate]: the half-life turned out to be 86 min.
Still for that read-out and setting: the same measure for `CC(C)c1c(Cl)sc2ncnc(NC3CCN(Cc4cccc(F)c4)CC3)c12` [Example B53, N-(1-(3-fluorobenzyl)piperidin-4-yl)-6-chloro-5-isopropylthieno[2,3-d]pyrimidin-4-amine, monomaleate]: 8 min.
On the same count and under the same terms, the same measure for `CC(c1cccc(F)c1)N1CCC(Nc2ncnc3sc4c(c23)CCCC4)CC1` (stereo not drawn) [Example B10, N-(1-(1-(3-fluorophenyl)ethyl)piperidin-4-yl)-(5,6,7,8-tetrahydro-benzo[4,5]thieno[2,3-d]pyrimidin-4-amine, dihydrochloride]: less than 15 min; for `Cc1c(Cl)sc2ncnc(NC3CCN(Cc4ccccc4C#N)CC3)c12` [Example B39, 2-((4-(6-chloro-5-methylthieno[2,3-d]pyrimidin-4-ylamino)piperidin-1-yl)methyl) benzonitrile, dihydrochloride]: less than 15 min; for `Fc1cccc(CN2CCC(Nc3ncnc4sc(Cl)cc34)CC2)c1` [Example B41, N-(1-(3-fluorobenzyl)piperidin-4-yl)-6-chlorothieno[2,3-d]pyrimidin-4-amine, dihydrochloride]: 10 min.
On the same count and under the same terms, the same measure for `CC(NCCCNc1ncnc2sc3c(c12)CCCC3)c1cccc(F)c1` (stereo not drawn) [Example B26, N-(3-(1-(3-fluorophenyl)ethylamino)propyl) 5,6,7,8-tetrahydro-benzo[4,5]thieno[2,3-d] pyrimidin-4-amine, dihydrochloride]: less than 15 min.
